Columns and labels:
PI3Kdelta = PI3Kdelta (Homo sapiens (Human), UniProt O00329); experiment: HTRF PI3K biochemical assay, delta isoform; settings: 0.3 nM enzyme, 100 uM ATP, 5 uM PIP2, form screened: Neutral
How it was run: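 0.3 nM PI3Kδ, pre-incubated 15 min at RT with compound (10-point 3-fold series), then reacted 1 h at RT with 100 uM ATP and 5 uM PIP2. After EDTA stop, PIP3 product detected by HTRF competition (GST-GRP1-PH, biotin-PIP3, Eu anti-GST, SA-APC), read 665/620 nm after 1 h.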

PI3Kalpha = PI3Kalpha (Homo sapiens (Human), UniProt P42336); experiment: HTRF PI3K biochemical assay, alpha isoform (selectivity versus PI3Kalpha); settings: relative ratio (PI3K-alpha IC50 value/PI3K-delta IC50 value); form screened: Neutral
PI3Kalpha, sequence (P42336 whole entry, the tested form may be a part, canonical isoform): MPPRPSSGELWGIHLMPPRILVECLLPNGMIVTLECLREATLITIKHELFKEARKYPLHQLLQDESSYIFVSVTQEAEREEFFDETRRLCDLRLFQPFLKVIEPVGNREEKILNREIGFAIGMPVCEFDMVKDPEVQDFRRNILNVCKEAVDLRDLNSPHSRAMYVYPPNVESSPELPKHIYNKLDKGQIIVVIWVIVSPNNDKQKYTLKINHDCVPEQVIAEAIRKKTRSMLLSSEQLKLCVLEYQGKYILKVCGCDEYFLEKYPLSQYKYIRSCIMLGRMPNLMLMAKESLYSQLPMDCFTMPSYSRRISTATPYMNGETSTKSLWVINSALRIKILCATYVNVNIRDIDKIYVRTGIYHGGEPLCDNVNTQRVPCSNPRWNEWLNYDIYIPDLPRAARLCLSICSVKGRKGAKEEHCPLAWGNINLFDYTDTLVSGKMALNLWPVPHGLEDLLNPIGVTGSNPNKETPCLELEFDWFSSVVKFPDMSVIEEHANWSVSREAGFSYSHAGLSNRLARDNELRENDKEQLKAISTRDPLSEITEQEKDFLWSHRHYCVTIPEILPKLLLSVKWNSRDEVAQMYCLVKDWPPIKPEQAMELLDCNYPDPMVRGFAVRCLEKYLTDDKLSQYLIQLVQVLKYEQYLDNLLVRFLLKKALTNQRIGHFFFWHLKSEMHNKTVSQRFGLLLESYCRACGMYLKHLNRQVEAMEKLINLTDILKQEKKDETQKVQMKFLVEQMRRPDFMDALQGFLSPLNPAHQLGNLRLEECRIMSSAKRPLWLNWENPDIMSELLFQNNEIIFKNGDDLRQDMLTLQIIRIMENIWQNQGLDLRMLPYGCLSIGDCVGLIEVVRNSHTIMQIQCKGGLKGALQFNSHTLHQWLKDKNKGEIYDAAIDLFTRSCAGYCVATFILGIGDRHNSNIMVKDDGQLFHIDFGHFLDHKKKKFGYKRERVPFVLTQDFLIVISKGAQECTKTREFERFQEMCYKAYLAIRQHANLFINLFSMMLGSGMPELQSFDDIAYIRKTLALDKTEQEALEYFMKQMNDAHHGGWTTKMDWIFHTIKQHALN
PI3Kalpha, sequence (P27986 whole entry partner, the tested form may be a part, canonical isoform): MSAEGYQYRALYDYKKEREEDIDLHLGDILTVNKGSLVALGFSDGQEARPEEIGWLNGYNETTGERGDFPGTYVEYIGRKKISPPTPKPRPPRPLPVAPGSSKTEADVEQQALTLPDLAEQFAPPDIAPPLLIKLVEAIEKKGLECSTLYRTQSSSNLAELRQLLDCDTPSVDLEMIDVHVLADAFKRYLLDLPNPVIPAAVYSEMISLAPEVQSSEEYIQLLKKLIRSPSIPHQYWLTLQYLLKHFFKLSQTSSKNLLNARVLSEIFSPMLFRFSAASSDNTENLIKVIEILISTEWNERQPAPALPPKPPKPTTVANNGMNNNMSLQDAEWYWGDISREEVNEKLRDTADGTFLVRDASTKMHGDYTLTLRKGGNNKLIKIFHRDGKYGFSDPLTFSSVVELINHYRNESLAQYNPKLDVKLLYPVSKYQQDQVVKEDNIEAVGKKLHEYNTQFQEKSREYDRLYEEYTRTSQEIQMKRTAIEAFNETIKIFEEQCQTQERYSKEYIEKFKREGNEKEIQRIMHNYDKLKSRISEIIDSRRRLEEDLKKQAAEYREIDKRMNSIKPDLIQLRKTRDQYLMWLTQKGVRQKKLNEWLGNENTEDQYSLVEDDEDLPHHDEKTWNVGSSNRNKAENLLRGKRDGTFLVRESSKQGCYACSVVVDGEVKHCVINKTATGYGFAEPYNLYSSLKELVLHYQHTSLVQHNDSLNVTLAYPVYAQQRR
How it was run: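 Uses recombinant PI3Kalpha at 0.5 nM with 100 uM ATP and 5 uM PIP2, after a 15 min RT compound pre-incubation and a 1 h RT reaction. PIP3 product displaces biotin-PIP3 from GST-GRP1 PH domain, read as HTRF 665/620 ratio. IC50 from a 10-point dose response, corrected via a PIP3 standard curve.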

PI3Kdelta, sequence (O00329 whole entry, canonical isoform): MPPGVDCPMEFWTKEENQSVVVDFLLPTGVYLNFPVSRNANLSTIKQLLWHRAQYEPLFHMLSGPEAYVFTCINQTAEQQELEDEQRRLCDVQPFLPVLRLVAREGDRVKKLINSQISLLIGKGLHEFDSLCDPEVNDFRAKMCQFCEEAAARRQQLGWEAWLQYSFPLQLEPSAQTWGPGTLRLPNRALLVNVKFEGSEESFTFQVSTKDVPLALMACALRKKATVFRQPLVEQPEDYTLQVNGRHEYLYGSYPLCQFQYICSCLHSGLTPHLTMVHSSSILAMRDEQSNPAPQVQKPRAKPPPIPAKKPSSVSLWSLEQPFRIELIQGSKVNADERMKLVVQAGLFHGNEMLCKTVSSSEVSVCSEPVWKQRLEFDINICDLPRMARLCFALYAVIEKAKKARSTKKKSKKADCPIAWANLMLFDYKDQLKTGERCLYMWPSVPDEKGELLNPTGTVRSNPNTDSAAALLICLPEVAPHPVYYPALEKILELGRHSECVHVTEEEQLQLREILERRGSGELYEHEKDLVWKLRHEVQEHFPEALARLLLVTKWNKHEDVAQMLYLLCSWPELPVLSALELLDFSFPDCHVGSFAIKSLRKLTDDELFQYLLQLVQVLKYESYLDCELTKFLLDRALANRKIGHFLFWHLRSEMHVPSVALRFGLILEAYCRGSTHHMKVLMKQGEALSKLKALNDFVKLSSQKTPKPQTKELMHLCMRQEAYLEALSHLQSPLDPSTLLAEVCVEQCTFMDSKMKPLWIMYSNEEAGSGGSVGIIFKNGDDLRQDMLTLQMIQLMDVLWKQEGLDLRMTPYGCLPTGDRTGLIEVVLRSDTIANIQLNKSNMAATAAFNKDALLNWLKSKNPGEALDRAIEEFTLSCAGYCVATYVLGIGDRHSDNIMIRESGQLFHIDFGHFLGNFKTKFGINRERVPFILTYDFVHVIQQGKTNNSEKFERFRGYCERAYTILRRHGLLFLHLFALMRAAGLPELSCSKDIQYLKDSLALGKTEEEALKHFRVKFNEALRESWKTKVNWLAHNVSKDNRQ
PI3Kdelta, sequence (P27986 whole entry partner, canonical isoform): as the sequence (P27986 whole entry partner, the tested form may be a part, canonical isoform) above

## CC[C@H](Nc1ncnc2c1nc(-c1cnc(C)nc1)n2CC)C(=O)N1CCS(=O)(=O)CC1 [Compound 2-8, N-{(1S)-1-[(1,1-dioxidothiomorpholin-4-yl)carbonyl]propyl}-9-ethyl-8-(2-methylpyrimidin-5-yl)-9H-purin-6-amine]
PI3Kdelta
  IC50: 31 nM
PI3Kalpha
  Selectivity versus PI3Kalpha: >10

## CCn1c(-c2cnc(C)nc2)nc2c(N[C@@H](CN(C)C)C(=O)N3C[C@@H](C)O[C@@H](C)C3)ncnc21 [Compound 2-51, (2S)-3-[(cis)-2,6-dimethylmorpholin-4-yl]-N-2-[9-ethyl-8-(2-methylpyrimidin-5-yl)-9H-purin-6-yl]-N-1-,N-1-dimethyl-3-oxopropane-1,2-diamine]
PI3Kdelta
  IC50: 420 nM
PI3Kalpha
  Selectivity versus PI3Kalpha: >10

## CC[C@H](Nc1ncnc2c1nc(-c1cnc(C)nc1)n2CC)C(=O)N1C[C@@H](C)C(F)(F)[C@@H](C)C1 [Compound 4-4, N-[(1S)-1-{[cis-4,4-difluoro-3,5-dimethylpiperidin-1-yl]carbonyl}propyl]-9-ethyl-8-(2-methylpyrimidin-5-yl)-9H-purin-6-amine]
PI3Kdelta
  IC50: 4.8 nM
PI3Kalpha
  Selectivity versus PI3Kalpha: >10

## CCC(Oc1ncnc2c1nc(-c1cnn(CC)c1C)n2C)C(=O)N1CCOCC1 (racemic) [Compound 1-1, (R and S)-8-(1-ethyl-5-methyl-1H-pyrazol-4-yl)-9-methyl-6-[1-(morpholin-4-ylcarbonyl)propoxy]-9H-purine]
PI3Kdelta
  IC50: 320 nM
PI3Kalpha
  Selectivity versus PI3Kalpha: >10

## CCC(Nc1ncnc2c1nc(-c1cnn(CC)c1C)n2C)C(=O)N1CCC(F)(F)CC1 (racemic) [Compound 1-5, (R and S)-N-{1-[(4,4-difluoropiperidin-1-yl)carbonyl]propyl}-8-(1-ethyl-5-methyl-1H-pyrazol-4-yl)-9-methyl-9H-purin-6-amine]
PI3Kdelta
  IC50: 9 nM
PI3Kalpha
  Selectivity versus PI3Kalpha: >10

## CCn1c(-c2cnc(C)nc2)nc2c(N[C@H](C(=O)N3C[C@@H](C)O[C@@H](C)C3)C(C)(C)C)ncnc21 [Compound 2-42, N-[(1S)-1-{[(cis)-2,6-dimethylmorpholin-4-yl]carbonyl}-2,2-dimethylpropyl]-9-ethyl-8-(2-methylpyrimidin-5-yl)-9H-purin-6-amine]
PI3Kdelta
  IC50: 5.3 nM
PI3Kalpha
  Selectivity versus PI3Kalpha: >10

## CCn1ncc(-c2nc3c(NC(C)C(=O)N4CCOCC4)ncnc3n2C)c1C (single isomer, unassigned) [Compound 1-7, (R or S)-8-(1-ethyl-5-methyl-1H-pyrazol-4-yl)-9-methyl-N-(1-methyl-2-morpholin-4-yl-2-oxoethyl)-9H-purin-6-amine]
PI3Kdelta
  IC50: 24 nM
PI3Kalpha
  Selectivity versus PI3Kalpha: >10

## CCn1c(-c2cnc(C)nc2)nc2c(N[C@H](C(=O)N3C[C@@H](C)O[C@@H](C)C3)C3CCCC3)ncnc21 [Compound 2-48, N-{(1S)-1-cyclopentyl-2-[(cis)-2,6-dimethylmorpholin-4-yl]-2-oxoethyl}-9-ethyl-8-(2-methylpyrimidin-5-yl)-9H-purin-6-amine]
PI3Kdelta
  IC50: 55 nM
PI3Kalpha
  Selectivity versus PI3Kalpha: >10

## CC[C@H](Nc1ncnc2c1nc(-c1cnc(C)nc1)n2CC)C(=O)N1CC[C@@H]2CCCC[C@@H]2C1 [Compound 2-20, 9-ethyl-8-(2-methylpyrimidin-5-yl)-N-{(1S)-1-[(cis)-octahydroisoquinolin-2(1H)-ylcarbonyl]propyl}-9H-purin-6-amine]
PI3Kdelta
  IC50: 14 nM
PI3Kalpha
  Selectivity versus PI3Kalpha: >10

## CCn1c(-c2cnc(C)nc2)nc2c(NC(C(=O)N3C[C@@H](C)O[C@@H](C)C3)C3CC3)ccnc21 (single isomer, unassigned) [Compound 3-4, N-{(R or S)-1-cyclopropyl-2-[(cis)-2,6-dimethylmorpholin-4-yl]-2-oxoethyl}-3-ethyl-2-(2-methylpyrimidin-5-yl)-3H-imidazo[4,5-b]pyridin-7-amine]
PI3Kdelta
  IC50: 5.2 nM
PI3Kalpha
  Selectivity versus PI3Kalpha: >10

## CC[C@H](Nc1ncnc2c1nc(-c1cnc(C)nc1)n2CC)C(=O)N1CCCOCC1 [Compound 2-25, 9-ethyl-8-(2-methylpyrimidin-5-yl)-N-[(1S)-1-(1,4-oxazepan-4-ylcarbonyl)propyl]-9H-purin-6-amine]
PI3Kdelta
  IC50: 21 nM
PI3Kalpha
  Selectivity versus PI3Kalpha: >10

## CC[C@H](Nc1ncnc2c1nc(-c1cnc(C)nc1)n2CC)C(=O)N1CC2CCS(=O)(=O)C2C1 (mixture of isomers) [Compound 2-14, N-{(1S)-1-[((3a(R and S), 6a(R and S)-1,1-dioxidohexahydro-5H-thieno[2,3-c]pyrrol-5-yl)carbonyl]propyl}-9-ethyl-8-(2-methylpyrimidin-5-yl)-9H-purin-6-amine]
PI3Kdelta
  IC50: 7 nM
PI3Kalpha
  Selectivity versus PI3Kalpha: >10

## CCn1c(-c2cnc(C)nc2)nc2c(NC[C@@H](C)C(=O)N3CCCC3)ncnc21 [Compound 2-60, 9-ethyl-N-[(2R)-2-methyl-3-oxo-3-pyrrolidin-1-ylpropyl]-8-(2-methylpyrimidin-5-yl)-9H-purin-6-amine]
PI3Kdelta
  IC50: 29 nM
PI3Kalpha
  Selectivity versus PI3Kalpha: >10

## CCn1c(-c2cnc(C)nc2)nc2c(NCC3(C(=O)N4C[C@@H](C)O[C@@H](C)C4)CC3)ncnc21 [Compound 2-57, N-[(1-{[(cis)-2,6-dimethylmorpholin-4-yl]carbonyl}cyclopropyl)methyl]-9-ethyl-8-(2-methylpyrimidin-5-yl)-9H-purin-6-amine]
PI3Kdelta
  IC50: 24 nM
PI3Kalpha
  Selectivity versus PI3Kalpha: >10

## CCn1c(-c2cnc(C)nc2)nc2c(N[C@H](C(=O)N3C[C@@H](C)O[C@@H](C)C3)C(C)C)ncnc21 [Compound 2-49, N-[(1S)-1-{[(cis)-2,6-dimethylmorpholin-4-yl]carbonyl}-2-methylpropyl]-9-ethyl-8-(2-methylpyrimidin-5-yl)-9H-purin-6-amine]
PI3Kdelta
  IC50: 4.1 nM
PI3Kalpha
  Selectivity versus PI3Kalpha: >10

## CC[C@H](Nc1ncnc2c1nc(-c1cnc(C)nc1)n2CC)C(=O)N1CCC(OCCOC)CC1 [Compound 2-10, 9-ethyl-N-[(1S)-1-{[4-(2-methoxyethoxy)piperidin-1-yl]carbonyl}propyl]-8-(2-methylpyrimidin-5-yl)-9H-purin-6-amine]
PI3Kdelta
  IC50: 62 nM
PI3Kalpha
  Selectivity versus PI3Kalpha: >10

## CC[C@H](Nc1ncnc2c1nc(-c1cnc(C)nc1)n2CC)C(=O)N1CCOC(COC)C1 (stereo partly drawn) [Compound 2-35, 9-ethyl-N-[(1S)-1-{[2-(methoxymethyl)morpholin-4 yl]carbonyl}propyl]-8-(2-methylpyrimidin-5-yl)-9H-purin-6-amine]
PI3Kdelta
  IC50: 39 nM
PI3Kalpha
  Selectivity versus PI3Kalpha: >10

## CC[C@H](Nc1ncnc2c1nc(-c1cnc(C)nc1)n2CC)C(=O)N1C[C@@H](C)N(C(C)=O)[C@@H](C)C1 [Compound 4-2, N-[(1S)-1-{[cis-4-acetyl-3,5-dimethylpiperazin-1-yl]carbonyl}propyl]-9-ethyl-8-(2-methylpyrimidin-5-yl)-9H-purin-6-amine]
PI3Kdelta
  IC50: 21 nM
PI3Kalpha
  Selectivity versus PI3Kalpha: >10

## CCC(Nc1ncnc2c1nc(-c1cnc(C)nc1)n2CC)C(=O)N1CCn2c(CC(C)C)nnc2C1 (single isomer, unassigned) [Compound 5-1, (S or R)-9-ethyl-N-(1-{[3-(2-methylpropyl)-5,6-dihydro[1,2,4]triazolo[4,3-a]pyrazin-7(8H)-yl]carbonyl}propyl)-8-(2-methylpyrimidin-5-yl)-9H-purin-6-amine]
PI3Kdelta
  IC50: 38 nM
PI3Kalpha
  Selectivity versus PI3Kalpha: >10

## CCn1c(-c2cnc(C)nc2)nc2c(N[C@H](CC(=O)N3C[C@@H](C)O[C@@H](C)C3)C(C)C)ncnc21 [Compound 2-58, N-[(1R)-3-[(cis)-2,6-dimethylmorpholin-4-yl]-1-(1-methylethyl)-3-oxopropyl]-9-ethyl-8-(2-methylpyrimidin-5-yl)-9H-purin-6-amine]
PI3Kdelta
  IC50: 290 nM
PI3Kalpha
  Selectivity versus PI3Kalpha: >10

## CCn1c(-c2cnc(C)nc2)nc2c(NC3(C(=O)N4CCC(F)(F)CC4)CC3)ncnc21 [Compound 2-3, N-{1-[(4,4-difluoropiperidin-1-yl)carbonyl]cyclopropyl}-9-ethyl-8-(2-methylpyrimidin-5-yl)-9H-purin-6-amine]
PI3Kdelta
  IC50: 590 nM
PI3Kalpha
  Selectivity versus PI3Kalpha: >10

## CC[C@H](Nc1ncnc2c1nc(-c1cnc(C)nc1)n2CC)C(=O)N1C[C@@H](C)N(C)[C@@H](C)C1 [Compound 4-3, 9-ethyl-8-(2-methylpyrimidin-5-yl)-N-[(1S)-1-{[cis-3,4,5-trimethylpiperazin-1-yl]carbonyl}propyl]-9H-purin-6-amine]
PI3Kdelta
  IC50: 5.5 nM
PI3Kalpha
  Selectivity versus PI3Kalpha: >10
